Measurements from patent US6831079B1, “Vasopressin agonist formulation and process” (American Cyanamid Company, priority 1999, dated 2004).

Key:
[1] = molecular target: Vasopressin V2 (Rattus norvegicus, UniProt Q00788); test: Vasopressin V2 agonist effects in normal conscious homozygous Brattleboro rats with central diabetes insipidus; type: in vivo; set-up: from tissue; host or cells: whole living homozygous Brattleboro rat; the receptor is the animal's own; details: Brattleboro (BB) rats, 10 mg/kg oral
Chain of Vasopressin V2 (Q00788 whole entry): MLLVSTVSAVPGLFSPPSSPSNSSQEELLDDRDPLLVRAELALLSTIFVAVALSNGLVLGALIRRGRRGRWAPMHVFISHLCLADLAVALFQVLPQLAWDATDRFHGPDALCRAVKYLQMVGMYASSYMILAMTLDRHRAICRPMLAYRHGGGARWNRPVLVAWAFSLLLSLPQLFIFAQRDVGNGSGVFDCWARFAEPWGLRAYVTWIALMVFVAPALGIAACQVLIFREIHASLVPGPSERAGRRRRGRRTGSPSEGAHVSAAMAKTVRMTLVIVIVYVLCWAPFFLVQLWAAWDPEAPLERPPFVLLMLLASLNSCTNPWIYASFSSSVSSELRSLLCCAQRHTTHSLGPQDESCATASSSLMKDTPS
Text: Vasopressin V2 Agonist Effects of Test Compounds in Normal Conscious Homozygous Brattleboro Rats with Central Diabetes Insipidus
Male or female homozygous Brattleboro rats (Harlan Sprague Dawley, Inc., Indianapolis, Ind.) of 250-350 g body weight were supplied with standard rodent diet (Purina Rodent Lab. Chow 5001) and water ad libitum. On the day of test, rats were placed individually into metabolic cages equipped with devices to separate the feces from the urine and containers for collection of urine. Test compound or reference agent was given at an oral dose of 1 to 10 mg/kg in a volume of 10 ml/kg. The vehicle used was 20% dimethylsulfoxide (DMSO) in 2.5% preboiled corn starch. During the test, rats were provided with water ad libitum. Urine was collected for six hours after dosing of the test compound. At the end of six hours, urine volume was measured. Urinary osmolality was determined using a Fiske One-Ten Osmometer (Fiske Associates, Norwood, Mass., 02062) or an Advanced CRYOMATIC Osmometer, Model 3C2 (Advanced Instruments, Norwood, Mass.). Determinations of Na^+, K^+ and Cl^− ion were carried out using ion specific electrodes in a Beckman SYNCHRON EL-ISE Electrolyte System analyzer. This animal model was mainly used for evaluation of potency and duration of action of the active compounds.

Osmolality (% Increase) ([1]; change in osmolality as percent of control): 221% | Urine Volume (% decrease) ([1]; vs. control, urine collected six hours): 74% | melting point: 155 to 158 °C
Structure (SMILES): Cn1ncnc1-c1ccc(C(=O)N2Cc3cccn3Cc3ccccc32)cc1 [Example 49, [4-(2-Methyl-2H-[1,2,4]triazol-3-yl)-phenyl]-(5H,11H-pyrrolo[2,1-c][1,4]-benzodiazepin-10-yl)-methanone]
